Measurements reported in patent US20240101551A1, “CRYSTAL FORM AND SALT FORM OF BROMINE DOMAIN PROTEIN INHIBITOR AND PREPARATION METHOD THEREFOR” (CHIA TAI TIANQING PHARMACEUTICAL GROUP CO., LTD., priority 2020, published 2024).
Where “and” joins values, the source holds several entries; their conditions need not be identical. Identical values can stand only once.

Assays:
Type in all cases: physicochemical
[1] = Study on stability of the crystal form I under influencing factors (Experimental Example 2)
Experimental: In order to evaluate the solid stability of the crystal form I of the present application, the stability of the crystal form I under influencing factors (high temperature, high humidity and light) was investigated. The crystal form I was stored under the high temperature condition (40° C., open (weighing bottle)), the high temperature condition (60° C., open (weighing bottle)), the high humidity condition (room temperature, 75% RH, open (weighing bottle)) and the high humidity condition (room temperature, 92.5% RH, open (weighing bottle) and packaged) for 5 days, 10 days and 30 days, and under the ICH light condition (5500 Lux, 0.9 w/m^2, open (weighing bottle) and packaged) for 5 days and 10 days. The inner packaging material of the packaged sample was a double-layer low-density polyethylene bag, and the outer packaging material is a polyester/aluminum/polyethylene composite bag for medicine packaging. The samples after the storage were determined for properties, related substances (HPLC), crystal form (XRD), water content and content to investigate the influence of high temperature, high humidity and light conditions on the product. The results are shown in Table 13 (“^#” indicates the ICH condition).

[2] = Study on accelerated stability and long-term stability of the crystal form I
Experimental: The crystal form I was placed under the accelerated condition (40±2° C., 75%±5% RH, and packaged) for 1, 2, 3 and 6 months, and under the long-term condition (25±2° C., 65%±5% RH, and packaged) for 3, 6, 9, 12, 18, 24 and 36 months to investigate its acceleration and long-term stability. The inner packaging material of the packaged sample was a double-layer low-density polyethylene bag, and the outer packaging material is a polyester/aluminum/polyethylene composite bag for medicine packaging. The samples after the storage were determined for properties, related substances (HPLC), crystal form (XRD), water content and content to investigate the stability of the product.

[3] = Particle size distribution test after jet milling (light scattering); conditions: for X90 Mean: mean of 3 experiments; for X90: single experiments 1-3
Experimental: The particle size distribution X90 described herein is determined by a light scattering method (Method 3 of Determination of Particle Size and Distribution of General Chapter 0982, Chinese Pharmacopoeia, Volume IV, 2020 Edition).
After jet milling, the crystal form I was tested for the particle size distribution by referring to Method 3 (a light scattering method) of Determination of Particle Size and Distribution of General Chapter 0982, Chinese Pharmacopoeia, Volume IV, 2020 Edition, with the specific steps as follows: 10 mg of the sample was weighed and placed in a laser scattering particle size distribution analyzer for testing (trigger conditions: 10 s, 1%; dispersion pressure: 2.0 bar).

[4] = Study on accelerated stability and long-term stability of the crystal form I; conditions: long-term, 25° C. ± 2° C., 60% ± 5% RH, packaged
[5] = 75% RH, room temperature, open, 5 days
[6] = 75% RH, room temperature, open, 10 days
[7] = 75% RH, room temperature, open, 30 days
[8] = 92.5% RH, room temperature, open, 5 days
[9] = 92.5% RH, room temperature, open, 10 days
[10] = 92.5% RH, room temperature, open, 30 days
[11] = Light (ICH, 5500 Lux), open, 5 days
[12] = Light (ICH, 5500 Lux), open, 10 days
[13] = accelerated, 40° C. ± 2° C., 75% ± 5% RH, packaged, 1 month
[14] = accelerated, 40° C. ± 2° C., 75% ± 5% RH, packaged, 2 months
[15] = accelerated, 40° C. ± 2° C., 75% ± 5% RH, packaged, 3 months
[16] = accelerated, 40° C. ± 2° C., 75% ± 5% RH, packaged, 6 months
[17] = long-term, 25° C. ± 2° C., 60% ± 5% RH, packaged, 6 months

Compound: Cn1cc(-c2nc(N=S(C)(C)=O)ccc2Oc2ccc(F)cc2F)c2cc[nH]c2c1=O [crystal form I]
- Crystal form change ([1]; 40° C., open, 5 days): Unchanged
- Impurity content ([1]; 40° C., open, 5 days): 0.06%
- Water content ([1]; 40° C., open, 5 days): 0.02%
- Crystal form change ([1]; 40° C., open, 10 days): Unchanged
- Impurity content ([1]; 40° C., open, 10 days): 0.08%
- Water content ([1]; 40° C., open, 10 days): 0.01%
- Crystal form change ([1]; 40° C., open, 30 days): Unchanged
- Impurity content ([1]; 40° C., open, 30 days): 0.08%
- Water content ([1]; 40° C., open, 30 days): 0.02%
- Crystal form change ([1]; 60° C., open, 5 days): Unchanged
- Impurity content ([1]; 60° C., open, 5 days): 0.07%
- Water content ([1]; 60° C., open, 5 days): 0.01%
- Crystal form change ([1]; 60° C., open, 10 days): Unchanged
- Impurity content ([1]; 60° C., open, 10 days): 0.08%
- Water content ([1]; 60° C., open, 10 days): 0.01%
- Crystal form change ([1]; 60° C., open, 30 days): Unchanged
- Impurity content ([1]; 60° C., open, 30 days): 0.09%
- Water content ([1]; 60° C., open, 30 days): 0.02%
- Crystal form change [1, 5]: Unchanged
- Impurity content [1, 5]: 0.06%
- Water content [1, 5]: 0.02%
- Crystal form change [1, 6]: Unchanged
- Impurity content [1, 6]: 0.08%
- Water content [1, 6]: 0.03%
- Crystal form change [1, 7]: Unchanged
- Impurity content [1, 7]: 0.08%
- Water content [1, 7]: 0.04%
- Crystal form change ([1]; 92.5% RH, packaged, 5 days): Unchanged
- Impurity content ([1]; 92.5% RH, packaged, 5 days): 0.06%
- Water content ([1]; 92.5% RH, packaged, 5 days): 0.02%
- Crystal form change ([1]; 92.5% RH, packaged, 10 days): Unchanged
- Impurity content ([1]; 92.5% RH, packaged, 10 days): 0.08%
- Water content ([1]; 92.5% RH, packaged, 10 days): 0.01%
- Crystal form change ([1]; 92.5% RH, packaged, 30 days): Unchanged
- Impurity content ([1]; 92.5% RH, packaged, 30 days): 0.08%
- Water content ([1]; 92.5% RH, packaged, 30 days): 0.03%
- Crystal form change [1, 8]: Unchanged
- Impurity content [1, 8]: 0.06%
- Water content [1, 8]: 0.03%
- Crystal form change [1, 9]: Unchanged
- Impurity content [1, 9]: 0.08%
- Water content [1, 9]: 0.03%
- Crystal form change [1, 10]: Unchanged
- Impurity content [1, 10]: 0.08%
- Water content [1, 10]: 0.06%
- Crystal form change ([1]; Light (ICH), packaged, 5 days): Unchanged
- Impurity content ([1]; Light (ICH), packaged, 5 days): 0.06%
- Water content ([1]; Light (ICH), packaged, 5 days): 0.02%
- Crystal form change ([1]; Light (ICH), packaged, 10 days): Unchanged
- Impurity content ([1]; Light (ICH), packaged, 10 days): 0.08%
- Water content ([1]; Light (ICH), packaged, 10 days): 0.02%
- Crystal form change [1, 11]: Unchanged
- Impurity content [1, 11]: 0.06%
- Water content [1, 11]: 0.01%
- Crystal form change [1, 12]: Unchanged
- Impurity content [1, 12]: 0.08%
- Water content [1, 12]: 0.02%
- Impurity content ([1]; starting crystal form I): 0.05%
- Water content ([1]; starting crystal form I): 0.02%
- Crystal form change [2, 13]: Unchanged
- Impurity content [2, 13]: 0.08%
- Water content [2, 13]: 0.03%
- Crystal form change [2, 14]: Unchanged
- Impurity content [2, 14]: 0.08%
- Water content [2, 14]: 0.03%
- Crystal form change [2, 15]: Unchanged
- Impurity content [2, 15]: 0.08%
- Water content [2, 15]: 0.03%
- Crystal form change [2, 16]: Unchanged
- Impurity content [2, 16]: 0.08%
- Water content [2, 16]: 0.03%
- Stability (conclusion) ([2]; influencing factors, accelerated and long-term conditions): good stability
- Crystal form change ([2]; long-term, 25° C. ± 2° C., 60% ± 5% RH, packaged, 3 months): Unchanged
- Crystal form change [2, 17]: Unchanged
- Impurity content [2, 17]: 0.08%
- Impurity content ([2]; starting crystal form I): 0.05%
- Water content ([2]; starting crystal form I): 0.02%
- X90 Mean ([3]; milling pressure 0.1 MPa): 11.50 μm
- X90 ([3]; milling pressure 0.1 MPa): 11.54 μm and 11.46 μm and 11.50 μm
- X90 Mean ([3]; milling pressure 0.3 MPa): 5.82 μm
- X90 ([3]; milling pressure 0.3 MPa): 5.78 μm and 6.02 μm and 5.67 μm
- Impurity content ([4]; 3 months): 0.08%
- Water content ([4]; 3 months): 0.03%
- Water content ([4]; 6 months): 0.04%
